# Assay results as given in patent publication US12319913B2, “5-halouracil-modified microRNAs and their use in the treatment of cancer” (The Research Foundation for The State University of New York, priority 2018, dated 2025).
# [5FU] = 5-fluorouracil base replacing uracil
# Tests used:
# [1] = test system: MDC1 and SUZ12; assay: Western blot of MDC1 and SUZ12 in triple negative breast cancer cells; format: cell-based, human; settings: triple negative breast cancer cells, western blot
# Description: (§1) Western immunoblot analysis: Forty-eight hours after transfection, equal amounts of protein (15 μg) extracted from cells lysed in RIPA buffer with protease inhibitor (Sigma) and were separated on 10%-12% sodium dodecyl sulfate-polyacrylamide gels using standard procedures. The primary antibodies used for the analysis were rabbit anti-YAP1 monoclonal antibody (1:10000) (Cell Signaling Technologies), anti-DLCK1 (1:500) (Abcam), anti-BCL2 (1:500) (NeoMarkers), anti-MDC1 (1:500), anti-SUZ12 (1:500), anti-pChk-1 (1:500), anti beta-actin (1:500), anti-BMI-1 (1:10000) (Cell Signaling Technologies), mouse anti-human TS antibody (1:500), anti-α-tubulin (1:50000) (Santa Cruz Biotech Inc.), anti-GAPDH (1:100000) (Santa Cruz Biotech Inc.), anti-E2F3 (1:500) (Santa Cruz Biotech Inc.), Horseradish peroxidase-conjugated antibodies against mouse or rabbit (1:5000, Santa Cruz Biotech Inc.) were used as the secondary antibodies. Protein bands were visualized with autoradiography film using SuperSignal West Pico Chemiluminescent Substrate (Thermo Fischer). Western blot density was quantified using Image J software.
# [2] = test system: MDA-MB-231 triple negative breast cancer cells; assay: MTT cell proliferation, MDA-MB-231, with or without oligofectamine; format: cell-based, human; settings: for cell proliferation without delivery vehicle (no oligofectamine): MDA-MB-231, MTT assay; for cell proliferation in the presence of oligofectamine: MDA-MB-231, MTT assay for 6 days, vs miR-NC
# Description: (§2) For transfections, 1×10^5 cells were plated in six-well plates and transfected with 100 nM of control non-specific miRNA (Thermo Fischer), a modified microRNA, or exogenous native microRNA after 24 hours using Oligofectamine (Thermo Fischer) following the manufacturer's protocols. For reagent free transfection, cells were plated in 6 well plates at (1×10^5) cells per well. Twenty-four hours later 100 pmol miRNA (Control, miR-15a, Mimic-1) were diluted in Optimem (Thermo Fischer) and added to the plate. Media was changed after 24 hours. Media was supplemented with 10% fetal bovine serum (Thermo Fischer). Briefly, cells were cultured in growth media (DMEM/F12 supplemented with B27, 10 ng/mL bFGF, and 20 ng/mL EGF (Life Technologies) in ultra-low attachment flasks) for up to 6 days. The spheroid cells were maintained by collection through gentle centrifugation, dissociation to single cells and replating.
# Furthermore, to test whether or not the modified microRNAs of the present disclosure can be delivered directly to cells and taken up by the cancer cells without the use of transfer agents or vehicles (i.e., oligofectamine), MDA-MB-231 triple negative breast cancer cells were transfected with miR-NC (negative control), exogenous unmodified miR-200b or miR-489, 5-FU-miR-200b or modified miR-489 by using oligofectamine or without delivery vehicle. As shown in FIGS. 17A-17B and 20A, the effects of expression of the exemplary modified miRs tested on breast cancer cell proliferation were monitored by MTT assay for 6 days upon transfection or incubation.
# [3] = test system: SKBR3 breast cancer cells; assay: Cell proliferation, SKBR3; format: cell-based, human; settings: SKBR3, compared to negative controls
# Description: as §2
# (§3) Cell proliferation assay: Twenty-four hours after transfection, cells were seeded in 96-well plates at a density of 2000 cells per well. The cell proliferation assay was performed on days 1 to 5 by incubating 10 μl WST-1 (Roche Applied Science, Mannheim, Germany) in the culture medium for 1 h and reading the absorbance at 450 and 630 nm. The cell proliferation rate was calculated by subtracting the […]. Experiments for the cell proliferation assay were performed at least three times. The O.D. was calculated by subtracting the absorbance at 630 nm from that at 450 nm. Proliferation experiments were performed three times.
# [4] = test system: Panc-1 pancreatic cancer cells; assay: Cell proliferation, Panc-1; format: cell-based, human; settings: PANC-1; 50 nM, 25 nM, 12.5 nM, 6.25 nM, and 3.125 nM
# Description: as §2, with “For transfections, 1×10^5 cells were plated in six-well plates and transfected with 100 nM of control non-specific miRNA (Thermo Fischer), a modified microRNA, or exogenous native microRNA after 24 hours using Oligofectamine (Thermo Fischer) following the manufacturer's protocols.” left out
# as §3
# [5] = test system: REH leukemia cells; assay: Cell cycle analysis, REH leukemia cells; format: cell-based, human; settings: 50 nM, compared to the control
# Description: (§4) Cell cycle analysis: Twenty-four hours after transfection, cells were harvested and resuspended at 0.5 to 1×10^6 cells/mL in modified Krishan's buffer supplemented with 0.02 mg/mL RNase H and 0.05 mg/mL propidium iodide. Stained cells were detected by flow cytometry and results were analyzed with Modfit LT™ software. The experiments for cell cycle analysis were performed at least three times.
# [6] = test system: AsPC-1 pancreatic cancer cells; assay: Cell proliferation, AsPC-1; format: cell-based, human; settings: APSC-1; 50 nM, 25 nM, 12.5 nM, 6.25 nM, and 3.125 nM
# Description: as §2, with “For transfections, 1×10^5 cells were plated in six-well plates and transfected with 100 nM of control non-specific miRNA (Thermo Fischer), a modified microRNA, or exogenous native microRNA after 24 hours using Oligofectamine (Thermo Fischer) following the manufacturer's protocols.” left out
# as §3
# [7] = test system: acute lymphocytic leukemia cell line (REH); assay: Cell proliferation, REH; format: cell-based, human; settings: compared to negative controls
# Description: as §2, §3
# [8] = test system: A549 lung cancer cells; assay: Cell proliferation, A549; format: cell-based, human; settings: A549, compared to negative controls
# Description: as §2, §3
# [9] = test system: acute lymphocytic leukemia cell line (REH); assay: Cell proliferation, REH; format: cell-based, human; settings: 50 nM, 25 nM, 12.5 nM, 6.25 nM, and 3.125 nM
# [10] = test system: AGS stomach cancer cells; assay: Cell proliferation, AGS; format: cell-based, human; settings: compared to negative controls
# Description: as §2, §3
# [11] = test system: Hs766T pancreatic cancer cells; assay: Cell proliferation, Hs766T; format: cell-based, human; settings: compared to negative controls
# Description: as §2, §3
# [12] = test system: HCT116 colon cancer cells; assay: WST-1 cell proliferation assay, HCT116; format: cell-based, human; settings: HCT-116, WST-1, six days after transfection
# Description: as §2, with “1×10^5 cells were plated in six-well plates and transfected with 100 nM of control non-specific miRNA (Thermo Fischer), a modified microRNA, or exogenous native microRNA after 24 hours using Oligofectamine” left out
# as §3
# [13] = test system: HCT-116 cells; assay: Cell cycle analysis by flow cytometry, colon cancer cells; format: cell-based, human; settings: colon cancer cells, compared to the control
# Description: as §4
# [14] = test system: colon cancer stem cells; assay: Anchorage-independent colony formation (soft agar); format: cell-based, human; settings: soft agar / Matrigel matrix
# Description: Anchorage-independent proliferation was studied to determine cancer cell colony forming ability. Cancer cells were trypsinized and counted and a total of 1×10^5 cells per well were transfected in 6-well plates with 25 nM modified microRNA or native miRs or a negative control miRNA with oligofectamine, and 6 hours after transfection, cells were recounted. A total of 20,000 cells in 0.35% agar (Bacto Agar; Becton Dickinson) were layered on top of 1 mL of a solidified 0.6% agar layer in a 35-mm dish. Growth media with B27, 10 ng/mL bFGF, and 20 ng/mL EGF were included in both layers. After 2 weeks of incubation, colonies more than […] in diameter were counted.
# [15] = test system: YAP1, BMI1, DCLK1 and BCL2; assay: Western blot of miR-15a targets in HCT-116 colon cancer stem cells; format: cell-based, human; settings: three days following transfection
# Description: as §1, with “[…],” for “Forty-eight hours after transfection,”, “software. […]” for “software.”
# [16] = test system: fibronectin; assay: Western blot of miR-200b target in breast cancer cells; format: cell-based, human; settings: compared to exogenous native miR-200b and negative control
# Description: as §1
# [17] = target: T1, TS-FdUMP (Homo sapiens, UniProt P04818); assay: Western blot of TS / TS-FdUMP in MDA-MB-231 cells; format: cell-based; settings: MDA-MB-231 cell line
# T1 construct: endogenous in cells
# Description: as §1
# [18] = test system: MDA-MB-231 breast cancer cells; assay: Cell cycle analysis, MDA-MB-231 breast cancer cells; format: cell-based, human; settings: compared to native exogenous microRNAs or NC
# Description: as §4
# T1 sequence (P04818 2-313 limits assumed): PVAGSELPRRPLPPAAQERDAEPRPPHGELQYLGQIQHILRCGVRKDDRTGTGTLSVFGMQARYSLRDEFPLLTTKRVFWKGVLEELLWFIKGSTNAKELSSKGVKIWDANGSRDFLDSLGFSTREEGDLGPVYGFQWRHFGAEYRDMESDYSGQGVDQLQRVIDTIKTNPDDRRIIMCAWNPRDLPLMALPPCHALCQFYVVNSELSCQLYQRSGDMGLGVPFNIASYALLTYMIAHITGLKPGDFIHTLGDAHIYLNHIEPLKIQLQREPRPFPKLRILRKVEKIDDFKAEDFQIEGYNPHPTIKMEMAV
Substance,MDC1 and SUZ12 protein expression [1],cell proliferation without delivery vehicle (no oligofectamine) [2],cell proliferation in the presence of oligofectamine [2],"cancer cell proliferation, native miR without 5-FU chemotherapy ([2]; MDA-MB-231, MTT, compared with 5 μM 5-FU alone)",breast cancer cell proliferation [3],"cell proliferation, dose dependence [4]",G1/S ratio [5],"cell proliferation, dose dependence [6]",leukemia cancer cell proliferation [7],lung cancer cell proliferation [8],"leukemia cancer cell proliferation, dose dependence [9]",gastric cancer cell proliferation [10],pancreatic cancer cell proliferation [11],decrease of cell proliferation compared to control [12],increase in the G1/S ratio [13],colony / sphere formation [14],"protein levels of YAP1, BMI1, DCLK1 and BCL2 [15]",fibronectin (miR-200b target gene) expression [16],TS-FdUMP break down [17],sub G1 and G1/S ratio [18]
"CGACGGCAUAUACACUACAGUG (chemistry not fully specified; listed as Homo sapiens) [native miR-489, 31]",reduction of MDC1 and SUZ12 protein expression,did not inhibit cell growth,reduced the rate of cell proliferation,reduces cancer cell proliferation in a manner similar to that exhibited when cells are treated with 5-FU alone,–,–,–,–,–,–,–,–,–,–,–,–,–,–,–,–
"GU^FCCAGU^FU^FU^FU^FCCCAGGAAU^FCCCU^F (GUCCAGUUUUCCCAGGAAUCCCU; RNA, [5FU] at 2, 7, 8, 9, 10, 19, 23, backbone not given here) [modified miR-145]",–,–,–,–,inhibited,inhibited in a dose dependent manner,significant fold increase in the G1/S ratio,inhibited in a dose dependent manner,inhibited,inhibited,inhibited in a dose dependent manner,inhibited,inhibited,–,–,–,–,–,–,–
"UAGCAGCACAUAAUGGUUUGUG (RNA, backbone not given here; listed as Homo sapiens) [unmodified miR-15a, reference compound]",–,–,–,–,–,–,–,–,–,–,–,–,–,53%,about 3 fold,very few colonies,reduced,–,–,–
"U^FAAU^FACU^FGCCU^FGGU^FAAU^FGAU^FGA (UAAUACUGCCUGGUAAUGAUGA; RNA, [5FU] at 1, 4, 7, 11, 14, 17, 20, backbone not given here) [modified miR-200b, miR-200b in which all (7) U bases are replaced by 5-fluorouracil]",–,effectively reduced cell proliferation,dramatically reduced the cell growth from day 3,–,inhibited,inhibited in a dose dependent manner,–,inhibited in a dose dependent manner,inhibited,inhibited,inhibited in a dose dependent manner,inhibited,inhibited,–,–,–,–,reduction of fibronectin,breaks down TS-FdUMP,significantly increase
U^FGAGGU^FAGU^FAGGU^FU^FGU^FAU^FAGU^FU^F [modified miR-let-7],–,–,–,–,inhibited,inhibited in a dose dependent manner,significant fold increase in the G1/S ratio,inhibited in a dose dependent manner,inhibited,inhibited,inhibited in a dose dependent manner,inhibited,inhibited,–,–,–,–,–,–,–
